Experiments:
Design in all cases: species or system mouse
Conditions in all cases: RIA IC50 value for METH/RIA IC50 value for test ligand
mAb6H8 = assay: RIA cross-reactivity profile, inhibition of [3H]-(+)METH binding to mAb6H8
Procedure: (§1) KD values for mAb were determined by the method of Akera and Cheng (1977, Biochim Biophys Acta 470:412-423).

mAb6H4 = assay: RIA cross-reactivity profile, inhibition of [3H]-(+)METH binding to mAb6H4
Procedure: as §1

mAb4G9 = assay: RIA cross-reactivity profile, inhibition of [3H]-(+)METH binding to mAb4G9
Procedure: as §1

CNC(C)Cc1ccc(O)cc1 (stereo not drawn) [4-OH-METH]
Antibody Specificity (Relative Potency to METH), mAb6H8 (mAb6H8): 0.294 | Antibody Specificity (Relative Potency to METH), mAb6H4 (mAb6H4): 0.588 | Antibody Specificity (Relative Potency to METH), mAb4G9 (mAb4G9): 0.106

CC(N)Cc1ccc2c(c1)OCO2 (single isomer, unassigned; (-)) [(−)MDA]
Antibody Specificity (Relative Potency to METH), mAb6H8 (mAb6H8): <0.001 | Antibody Specificity (Relative Potency to METH), mAb6H4 (mAb6H4): <0.001 | Antibody Specificity (Relative Potency to METH), mAb4G9 (mAb4G9): 0.002

CC(N)Cc1ccc2c(c1)OCO2 (single isomer, unassigned; (+)) [(+)MDA]
Antibody Specificity (Relative Potency to METH), mAb6H8 (mAb6H8): 0.024 | Antibody Specificity (Relative Potency to METH), mAb6H4 (mAb6H4): 0.001 | Antibody Specificity (Relative Potency to METH), mAb4G9 (mAb4G9): 0.090

(+)norpseudoephedrine
Antibody Specificity (Relative Potency to METH), mAb6H8 (mAb6H8): <0.001 | Antibody Specificity (Relative Potency to METH), mAb6H4 (mAb6H4): <0.001 | Antibody Specificity (Relative Potency to METH), mAb4G9 (mAb4G9): <0.001

CNC(C)Cc1ccc2c(c1)OCO2 (single isomer, unassigned; (-)) [(−)MDMA]
Antibody Specificity (Relative Potency to METH), mAb6H8 (mAb6H8): 0.018 | Antibody Specificity (Relative Potency to METH), mAb6H4 (mAb6H4): 0.007 | Antibody Specificity (Relative Potency to METH), mAb4G9 (mAb4G9): 0.011

CC(N)C(O)c1ccccc1 (single isomer, unassigned; (+)) [(+)phenylpropanolamine]
Antibody Specificity (Relative Potency to METH), mAb6H8 (mAb6H8): <0.001 | Antibody Specificity (Relative Potency to METH), mAb6H4 (mAb6H4): <0.001 | Antibody Specificity (Relative Potency to METH), mAb4G9 (mAb4G9): <0.001

CNC(C)Cc1ccc2c(c1)OCO2 (single isomer, unassigned; (+)) [(+)MDMA, (+)-3,4-methylenedioxymethamphetamine]
Antibody Specificity (Relative Potency to METH), mAb6H8 (mAb6H8): 3.40 | Antibody Specificity (Relative Potency to METH), mAb6H4 (mAb6H4): 1.25 | Antibody Specificity (Relative Potency to METH), mAb4G9 (mAb4G9): 0.29

NCCc1c[nH]c2ccc(O)cc12 [serotonin]
Antibody Specificity (Relative Potency to METH), mAb6H8 (mAb6H8): <0.001 | Antibody Specificity (Relative Potency to METH), mAb6H4 (mAb6H4): <0.001 | Antibody Specificity (Relative Potency to METH), mAb4G9 (mAb4G9): <0.001

NCCc1ccc(O)c(O)c1 [dopamine]
Antibody Specificity (Relative Potency to METH), mAb6H8 (mAb6H8): <0.001 | Antibody Specificity (Relative Potency to METH), mAb6H4 (mAb6H4): <0.001 | Antibody Specificity (Relative Potency to METH), mAb4G9 (mAb4G9): <0.001

CNC[C@H](O)c1ccc(O)c(O)c1 [epinephrine]
Antibody Specificity (Relative Potency to METH), mAb6H8 (mAb6H8): <0.001 | Antibody Specificity (Relative Potency to METH), mAb6H4 (mAb6H4): <0.001 | Antibody Specificity (Relative Potency to METH), mAb4G9 (mAb4G9): <0.001

CNC[C@H](O)c1cccc(O)c1 [l-phenylphrine]
Antibody Specificity (Relative Potency to METH), mAb6H8 (mAb6H8): <0.001 | Antibody Specificity (Relative Potency to METH), mAb6H4 (mAb6H4): 0.001 | Antibody Specificity (Relative Potency to METH), mAb4G9 (mAb4G9): <0.001

CN[C@H](C)[C@@H](O)c1ccccc1 [(+)ephedrine]
Antibody Specificity (Relative Potency to METH), mAb6H8 (mAb6H8): <0.001 | Antibody Specificity (Relative Potency to METH), mAb6H4 (mAb6H4): <0.001 | Antibody Specificity (Relative Potency to METH), mAb4G9 (mAb4G9): <0.001

(−)-methamphetamine [(−)METH]
Antibody Specificity (Relative Potency to METH), mAb6H8 (mAb6H8): 0.011 | Antibody Specificity (Relative Potency to METH), mAb6H4 (mAb6H4): 0.030 | Antibody Specificity (Relative Potency to METH), mAb4G9 (mAb4G9): 0.102

NC[C@H](O)c1ccc(O)c(O)c1 [norepinepherine]
Antibody Specificity (Relative Potency to METH), mAb6H8 (mAb6H8): <0.001 | Antibody Specificity (Relative Potency to METH), mAb6H4 (mAb6H4): <0.001 | Antibody Specificity (Relative Potency to METH), mAb4G9 (mAb4G9): <0.001

CC(N)Cc1ccccc1 (single isomer, unassigned; (-)) [(−)AMP, (−)amphetamine]
Antibody Specificity (Relative Potency to METH), mAb6H8 (mAb6H8): 0.003 | Antibody Specificity (Relative Potency to METH), mAb6H4 (mAb6H4): <0.001 | Antibody Specificity (Relative Potency to METH), mAb4G9 (mAb4G9): 0.063

CC(N)Cc1ccccc1 (single isomer, unassigned; (+)) [(+)AMP, (+)-amphetamine]
Antibody Specificity (Relative Potency to METH), mAb6H8 (mAb6H8): 0.023 | Antibody Specificity (Relative Potency to METH), mAb6H4 (mAb6H4): 0.001 | Antibody Specificity (Relative Potency to METH), mAb4G9 (mAb4G9): 0.34

NCCc1ccc(O)cc1 [tyramine]
Antibody Specificity (Relative Potency to METH), mAb6H8 (mAb6H8): <0.001 | Antibody Specificity (Relative Potency to METH), mAb6H4 (mAb6H4): <0.001 | Antibody Specificity (Relative Potency to METH), mAb4G9 (mAb4G9): <0.001

(+)pseudoephedrine
Antibody Specificity (Relative Potency to METH), mAb6H8 (mAb6H8): 0.018 | Antibody Specificity (Relative Potency to METH), mAb6H4 (mAb6H4): <0.001 | Antibody Specificity (Relative Potency to METH), mAb4G9 (mAb4G9): 0.004

NCCc1ccccc1 [β-phenylethylamine]
Antibody Specificity (Relative Potency to METH), mAb6H8 (mAb6H8): <0.001 | Antibody Specificity (Relative Potency to METH), mAb6H4 (mAb6H4): <0.001 | Antibody Specificity (Relative Potency to METH), mAb4G9 (mAb4G9): 0.001
